Test results from patent US20250154144A1 (CHILDREN'S HOSPITAL MEDICAL CENTER, priority 2021, published 2025).

Key:
[1] = biological target: IRAK1 (Homo sapiens, UniProt P51617); assay: RBC HotSpot Kinase Assay, IRAK1; conditions: IRAK1 IC50
[2] = biological target: T1, IRAK4 (Homo sapiens, UniProt Q9NWZ3); assay: RBC HotSpot Kinase Assay, IRAK4; conditions: IRAK4 IC50
T1 sequence (Q9NWZ3 1-460): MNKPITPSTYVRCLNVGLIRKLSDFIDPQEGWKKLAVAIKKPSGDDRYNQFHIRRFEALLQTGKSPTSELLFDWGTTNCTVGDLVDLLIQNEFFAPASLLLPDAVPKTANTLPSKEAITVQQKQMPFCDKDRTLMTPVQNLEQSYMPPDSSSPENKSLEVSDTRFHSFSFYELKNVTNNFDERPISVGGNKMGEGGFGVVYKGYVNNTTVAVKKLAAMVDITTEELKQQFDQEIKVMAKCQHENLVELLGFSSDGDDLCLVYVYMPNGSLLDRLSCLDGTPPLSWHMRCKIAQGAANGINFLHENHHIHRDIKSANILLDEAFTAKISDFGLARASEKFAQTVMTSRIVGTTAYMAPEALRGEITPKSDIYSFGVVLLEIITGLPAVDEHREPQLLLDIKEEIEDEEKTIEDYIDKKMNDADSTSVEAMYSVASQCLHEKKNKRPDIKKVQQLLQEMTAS

[3] = test system: MOLM14 F691L cells; assay: cells; assay type: cell-based; conditions: Homo sapiens, MOLM-14, 48 h, 48 hours, Cell Titer Glo; read-out: MOLM14 F691L IC50
[4] = test system: MOLM14 D835Y cells; assay: cells; assay type: cell-based; conditions: Homo sapiens, MOLM-14, 48 h, 48 hours, Cell Titer Glo; read-out: MOLM14 D835Y IC50
[5] = biological target: T2, FLT3 (Homo sapiens, UniProt P36888); assay: RBC HotSpot Kinase Assay, FLT3; conditions: FLT3 IC50
T2 sequence (P36888 610-943 limits assumed): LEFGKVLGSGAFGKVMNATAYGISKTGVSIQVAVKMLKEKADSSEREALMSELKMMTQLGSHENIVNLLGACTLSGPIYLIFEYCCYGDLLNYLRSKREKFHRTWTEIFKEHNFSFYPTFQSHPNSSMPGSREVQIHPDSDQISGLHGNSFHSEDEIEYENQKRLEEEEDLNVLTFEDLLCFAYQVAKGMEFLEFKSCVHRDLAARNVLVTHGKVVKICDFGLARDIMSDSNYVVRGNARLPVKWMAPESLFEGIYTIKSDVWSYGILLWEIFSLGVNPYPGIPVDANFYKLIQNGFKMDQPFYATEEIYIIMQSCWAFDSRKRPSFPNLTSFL

IRAK1, sequence (P51617 whole entry): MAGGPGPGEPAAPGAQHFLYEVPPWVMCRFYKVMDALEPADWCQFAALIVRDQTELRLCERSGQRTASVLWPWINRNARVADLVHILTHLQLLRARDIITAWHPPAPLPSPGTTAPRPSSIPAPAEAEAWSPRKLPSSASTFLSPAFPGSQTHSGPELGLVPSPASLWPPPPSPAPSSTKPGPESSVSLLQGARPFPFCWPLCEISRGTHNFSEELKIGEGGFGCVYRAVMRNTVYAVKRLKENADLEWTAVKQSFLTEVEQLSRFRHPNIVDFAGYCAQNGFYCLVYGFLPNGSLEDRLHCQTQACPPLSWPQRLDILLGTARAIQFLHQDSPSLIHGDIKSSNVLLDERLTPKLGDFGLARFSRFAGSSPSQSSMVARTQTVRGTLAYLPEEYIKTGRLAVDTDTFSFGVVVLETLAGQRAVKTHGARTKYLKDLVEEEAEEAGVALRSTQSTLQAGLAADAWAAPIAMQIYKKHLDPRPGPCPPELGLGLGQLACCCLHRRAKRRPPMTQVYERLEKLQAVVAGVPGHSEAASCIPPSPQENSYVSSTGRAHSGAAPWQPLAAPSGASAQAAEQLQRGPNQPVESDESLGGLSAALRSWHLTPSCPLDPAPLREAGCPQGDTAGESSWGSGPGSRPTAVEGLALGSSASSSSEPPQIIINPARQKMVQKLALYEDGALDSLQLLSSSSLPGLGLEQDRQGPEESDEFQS

Compound	IC50 [1] [nM]	IC50 [2] [nM]	IC50 [3] [nM]	IC50 [4] [nM]	IC50 [5] [nM]
COc1cc2ncc(-c3cncc(N[C@H]4CNC[C@@H]4F)n3)n2cc1C(C)(C)O [Compound 19, 2-(3-(6-(((3S,4S)-4-fluoropyrrolidin-3-yl)amino)pyrazin-2-yl)-7-methoxyimidazo[1,2-a]pyridin-6-yl)propan-2-ol]	3	0.8	193	109	< 0.5
COc1cc2ncc(-c3cncc(N[C@@H]4CCCNC4)n3)n2cc1C(C)(C)O [Compound 20, (R)-2-(7-methoxy-3-(6-(piperidin-3-ylamino)pyrazin-2-yl)imidazo[1,2-a]pyridin-6-yl)propan-2-ol]	5	1	61	43	< 0.5
FC(F)COc1ccn2c(-c3ccnc(N[C@H]4CNC[C@@H]4F)n3)cnc2c1 [Compound 31, 4-(7-(2,2-difluoroethoxy)imidazo[1,2-a]pyridin-3-yl)-N-((3S,4S)-4-fluoropyrrolidin-3-yl)pyrimidin-2-amine]	9	0.7	344	15	< 0.5
FC(F)Oc1ccn2c(-c3ccnc(N[C@H]4CNC[C@@H]4F)n3)cnc2c1 [Compound 34, 4-(7-(difluoromethoxy)imidazo[1,2-a]pyridin-3-yl)-N-((3S,4S)-4-fluoropyrrolidin-3-yl)pyrimidin-2-amine]	10	5	1090	86	< 0.5
FC(F)Oc1ccn2c(-c3ccnc(N[C@H]4CNCC[C@@H]4F)n3)cnc2c1 [Compound 36, 4-(7-(difluoromethoxy)imidazo[1,2-a]pyridin-3-yl)-N-((3S,4S)-4-fluoropiperidin-3-yl)pyrimidin-2-amine]	17	3	307	43	< 0.5
c1cc(-c2cnc3cc(OC4CC4)ccn23)nc(N[C@@H]2CCCNC2)n1 [Compound 38, (R)-4-(7-cyclopropoxyimidazo [1,2-a]pyridin-3-yl)-N-(piperidin-3-yl)pyrimidin-2-amine]	60	6	193	22	< 0.5

Continued, values first:

IC50 [1] [nM]	IC50 [2] [nM]	IC50 [3] [nM]	IC50 [4] [nM]	IC50 [5] [nM]	Compound
86	21	864	307	1	FC(F)Oc1ccn2c(-c3cncc(N[C@H]4CNC[C@@H]4F)n3)cnc2c1 [Compound 13, 6-(7-(difluoromethoxy)imidazo [1,2-a]pyridin-3-yl)-N-((3S,4S)-4-fluoropyrrolidin-3-yl)pyrazin-2-amine]
447	12	193	86	0.8	FC(F)Oc1ccn2c(-c3cncc(N[C@@H]4CCCNC4)n3)cnc2c1 [Compound 14, (R)-6-(7-(difluoromethoxy)imidazo [1,2-a]pyridin-3-yl)-N-(piperidin-3-yl)pyrazin-2-amine]
13	< 0.5	109	12	< 0.5	COc1ccn2c(-c3ccnc(N[C@@H]4CCCNC4)n3)cnc2c1 [Compound 29, (R)-4-(7-methoxyimidazo[1,2-a]pyridin-3-yl)-N-(piperidin-3-yl)pyrimidin-2-amine]
45	2	77	7	< 0.5	FC(F)COc1ccn2c(-c3ccnc(N[C@@H]4CCCNC4)n3)cnc2c1 [Compound 32, (R)-4-(7-(2,2-difluoroethoxy)imidazo[1,2-a]pyridin-3-yl)-N-(piperidin-3-yl)pyrimidin-2-amine]
120	27	433	39	< 0.5	FC(F)Oc1ccn2c(-c3ccnc(N[C@@H]4CCCNC4)n3)cnc2c1 [Compound 35, (R)-4-(7-(difluoromethoxy)imidazo[1,2-a]pyridin-3-yl)-N-(piperidin-3-yl)pyrimidin-2-amine]
